Data taken from ChEMBL document CHEMBL5724803, “Viability screening in matched tumor and normal assay results for EUbOPEN Chemogenomics Library” (2024).
Square brackets hold non-standard residues; d marks the D form. Peptide text beside a SMILES is read from it. Arg(Me) = CNC(=N)NCCC[C@H](N)C(=O)O; d3Pal = N[C@H](Cc1cccnc1)C(=O)O; d4Pal = N[C@H](Cc1ccncc1)C(=O)O; azaGly = NNC(=O)O

These compounds were tested on Colon organoid.
Assay type: functional, Homo sapiens

Structure (SMILES) | Cell Viability Ratio
COc1cc(N[C@@H]2CCCC[C@]2(O)C(F)(F)F)ccc1F [BAY-9897] | 0.9982
CC(=O)N1CCC(c2ccc(C(=O)NC3=NCCN3)cc2C(F)(F)F)CC1 [BI 0054] | 1.041
CN(C)C(=O)Cn1cc(-c2nc(C3(c4ccc(-c5cnc(N)nc5)cc4)CC3)no2)cn1 [BI 0153] | 0.9292
COc1ccc2c(O[C@@H]3C[C@H]4C(=O)N[C@]5(C(=O)O)CC5/C=C\CCCCC[C@H](NC(=O)OC5CCCC5)C(=O)N4C3)cc(-c3csc(NC(=O)C(C)C)n3)nc2c1C (stereo partly drawn) [BI 1230] | 0.9938
O=C(N[C@H]1CCCCC/C=C\C2C[C@@]2(C(=O)O)NC(=O)[C@@H]2C[C@@H](Oc3ccncc3)CN2C1=O)OC1CCCC1 (stereo partly drawn) [BI 1675] | 1.111
CCOCCn1cc(C(=O)Nc2ccc(-n3nc(-c4cccnc4)cc3C(F)(F)F)cn2)ccc1=O [BI 1935] | 0.9955
C[C@H](NC(=O)c1cnc2n1[C@](C)(Cc1ccc(C#N)cc1)C(=O)N2c1cc(Cl)c(F)c(Cl)c1)C(=O)NC1(c2ccccn2)CC1 [BI 1950] | 0.9219
O=C(Nc1ccc(-n2nc(-c3cccnc3)cc2C(F)(F)F)cn1)c1ccc(-c2ccccc2)c(F)c1 [BI 2049] | 1.116
CCS(=O)(=O)c1cc2cc(C[C@@](O)(CC(C)(C)c3ccc(F)cc3C(N)=O)C(F)(F)F)[nH]c2cn1 [BI 3047] | 1.1136
CCOC(=O)c1cc2cc(-c3cc(C(=O)NCc4ccc(C(=O)O)cc4)nn3C)ccc2[nH]1 [BI 4394] | 0.9253
Cn1nc(C(=O)NCc2ccc(C(=O)O)cc2)cc1-c1ccc2[nH]ccc2c1 [BI 4395] | 1.056
CS(=O)(=O)NCC[C@H](NC(=O)c1cncc2c1cnn2-c1ccc(F)cc1)c1ccnc(S(C)(=O)=O)c1 [BI 9307] | 1.198
C[C@@]1(Cc2ccc(C#N)cc2)C(=O)N(c2cc(Cl)cc(Cl)c2)c2ncc(C(=O)NC3(c4nc(C5CCC5)no4)CC3)n21 [BI 9446] | 1.099
CC(=O)N1CCC(c2ccc(C(=O)NC(=N)N)cc2C(F)(F)F)CC1 [BI 9627] | 0.903
CCC(=O)N[C@H]1CC[C@@H](C(=O)N(C)c2ccc(-c3nc4ccccc4o3)cc2)C1 [BI 99179] | 0.6872
CCC(=O)N[C@@H]1CC[C@H](C(=O)N(C)c2ccc(-c3nc4ccccc4o3)cc2)C1 [BI 99990] | 1.309
CS(=O)(=O)c1cc(C2(NC(=O)c3cncc4c3cnn4-c3ccc(F)cc3)CC2)ccn1 [BI 639667] | 0.9024
CCS(=O)(=O)c1cc2cc(C[C@](O)(CC(C)(C)c3ccc(F)cc3C(N)=O)C(F)(F)F)[nH]c2cn1 [BI 653048] | 0.9178
O=c1nc(-c2ccccn2)sc2ccccc12 [BTZO-1] | 0.8779
O=C1NC(c2ccccn2)Sc2ccccc21 (stereo not drawn) [BTZO-4] | 1.041
CN1CCN(Cc2ccc(Nc3ncc(Cl)c(Nc4ccccc4S(=O)(=O)N(C)C)n3)cc2)CC1 [DUBERMATINIB] | 0.1542

Structure (SMILES) | Cell Viability Ratio
C[C@H](NC(=O)Nc1cc2[nH]ncc2c(CO)n1)c1ccccn1 [ERKi-NC] | 1.034
CN(C(=O)c1ccccc1)c1cc(N(C)c2ccc3c(c2)CCc2ccc(C(=O)NCCN4CCOCC4)cc2C3=O)ccc1F [FM-743] | 0.9975
O=C(NCCN1CCOCC1)c1ccc2c(c1)C(=O)c1ccc(Nc3ccc(F)c(NC(=O)c4ccccc4)c3)cc1CC2 [FS-694] | 0.8259
CC(C)(C)OC(=O)N1CCCC1CNC1CCC(c2cc(F)ccc2F)(S(=O)(=O)c2ccc(Cl)cc2)CC1 (stereo not drawn) [GSI-NC] | 0.9423
CC(=O)Nc1c(F)cc(C(=O)N[C@H]2CC[C@H](O)CC2)cc1O[C@@H](C)c1ccccc1 [GSK046] | 0.8182
CNC(=O)c1cc(C(=O)NC2CC2)cn(Cc2ccccc2)c1=O [GSK620] | 0.8825
O=C(O)c1ccc(-c2c[nH]c3ncc(-c4ccccc4)cc23)cc1C1CCCC1 [GSK-650394] | 1.062
Cc1c(Oc2ccc(F)cc2)c(OC(C)C)nn1-c1ccc(C2CC2)cn1 [IPP/CNRS-A019] | 1.225
CNC(=N)NCCC[C@H](NC(=O)[C@H](CC(C)C)NC(=O)NNC(=O)[C@H](Cc1ccccc1)NC(=O)[C@H](CO)NC(=O)[C@H](CC(N)=O)NC(=O)[C@@H](Cc1ccncc1)NC(=O)[C@H](N)Cc1ccc(O)cc1)C(=O)N[C@@H](Cc1ccccc1)C(N)=O [KISS1-305] (H-[dY][d4Pal]NSF[azaGly]L[Arg(Me)]F-NH2) | 1.123
CNC(=N)NCCC[C@H](NC(=O)[C@H](CC(C)C)NC(=O)NNC(=O)[C@H](Cc1ccccc1)NC(=O)[C@H](CO)NC(=O)[C@H](CC(N)=O)NC(=O)[C@@H](Cc1cccnc1)NC(=O)[C@H](N)Cc1ccc(O)cc1)C(=O)NCC(N)=O [KISS1-543] (H-[dY][d3Pal]NSF[azaGly]L[Arg(Me)]G-NH2) | 1.03
C[C@@H]1CN(c2cc(-c3nn(C)c4ccc(OC5(C)CC5)cc34)ncn2)C[C@H](C)O1 [MLi-2-NC] | 1.036
CC(=O)c1c(NS(C)(=O)=O)c2cc(-c3ccc(Cl)cc3)c(-c3ccc(Cl)cc3Cl)nc2n(C)c1=O [MRL-CB1-NC] | 1.02
Cc1ccc(-c2cnc([C@@]3(O)CC[C@H](C(=O)O)C(C)(C)C3)s2)cc1Nc1cccc(C(F)(F)F)n1 [MRL-SYKi-NC] | 1.002
Cc1cc(Nc2nccc(C)n2)cc(-c2cnc([C@@]3(O)CC[C@H](C(=O)O)C(C)(C)C3)s2)c1 [MRL-SYKi] | 0.8949
FC(F)(F)c1ccc2c(c1)nc(-c1cccnc1)n2C1CC1 [MSD-CYP11B2-Negative-control] | 1.22
CC(C)(O)c1cncc(-c2nc3ccc(F)cc3n2C2CC2)c1 [MSD-CYP11B2] | 0.9895
N#CC1(c2ccccn2)CCN(Cc2cc(C(=O)N3CCCC3)c(=O)n3ccccc23)CC1 [MSD-M1PAM-NC] | 1.068
CO[C@@H](C)c1c(Nc2ccc([C@@H](N(C)C(=O)C3CCS(=O)(=O)CC3)C(F)(F)F)cc2)cnc2cc(Cl)nn12 [NVS-MALT1-C] | 1.209
CO[C@@H](C)c1c(Nc2ccc([C@H](N(C)C(=O)C3CCS(=O)(=O)CC3)C(F)(F)F)cc2)cnc2cc(Cl)nn12 [NVS-MALT1] | 0.853
Nc1nc(NCc2ccccc2)nc(-c2ccccc2CO)n1 [Ogerin] | 1.099
CN(c1ccnc(CNc2nc(Nc3ccc4c(c3)CC(=O)N4)ncc2C(F)(F)F)n1)S(C)(=O)=O [PF-00911705] | 1.1264

Structure (SMILES) | Cell Viability Ratio
CC(=O)NCC(=O)N1[C@@H]2CC[C@H]1c1ccc(Nc3ncc(C(F)(F)F)c(NC4CCC4)n3)cc12 [PF-03814735] | 0.4683
COc1ccc2cc(OCC3(C(=O)O)CN(C(=O)c4ccc(F)cc4)C3)ccc2c1 [PF-04418948] | 1.076
O=C(c1ccc(F)cc1)N1CC(COc2ccc(Br)cc2)(C(=O)O)C1 [PF-04475866] | 0.9754
C[C@H](c1ccc(F)cc1)N(Cc1ccc(Cl)c(C(=O)O)c1)C(=O)c1cnc2ccccc2c1 [PF-05257137] | 1.055
Cn1cnc2c(F)c(Nc3ccc(Br)cc3Cl)c(C(=O)NOCCO)cc21 [SELUMETINIB] | 1.4315
O=C1c2ccc(Nc3ccc(F)cc3F)cc2CCc2ccc(OC[C@H](O)CO)cc21 [Skepinone-L] | 1.035
CN1CCN(C(=O)C(C)(C)c2ccc(C(=O)Nc3cn4cc(-c5cc(C(C)(C)C)cc(C(C)(C)C)c5)ccc4n3)cc2)CC1 [T3-CLK-N] | 0.9471
COc1cccc(CNC(=O)c2nc3scc(CN(C)Cc4ccccc4)c3c(=O)[nH]2)c1 [T-26f] | 1.048
CC(C)CC(=O)N1CCc2nc(-c3ccc(Br)cc3)nc(N(C)Cc3ccccc3)c2C1 [THPP-1-NC] | 1.2658
COCCOc1nc(-c2ccc(Cl)nc2)nc2c1CN(C(=O)c1ncn3ccccc13)CC2 [THPP-1] | 1.038
Cc1cnc(-c2cc(Cl)ccc2F)cc1-n1c(=O)n(CC(N)=O)c2cnccc21 [TP-008] | 1.1125
Cn1nc(C(F)(F)F)cc1-c1cnc(N2CCc3cc(S(=O)(=O)Nc4c(F)cc(Cl)cc4F)cc(N4CCCC4=O)c32)nc1 [TP-020] | 0.9629
Nc1cnc(N2CCc3cc(S(=O)(=O)Nc4c(F)cc(Cl)cc4F)cc(N4CCCC4=O)c32)nc1 [TP-020n] | 1.046
Cc1cc(-n2nc(Cc3cc(F)cc(C(F)(F)F)c3)nc2C)ccc1C(N)=O [TP-024] | 0.8967
Cc1nc(Cc2cccc(C(F)(F)F)c2)sc1-c1ccc(C(N)=O)nc1 [TP-024n] | 1.0424
CN1C(=O)[C@@H](N2CCc3c(nn(Cc4ccccc4)c3Br)C2=O)COc2ccccc21 [TP-030-2] | 1.065
Cc1ccc2[nH]c(CNCCCc3ccncc3)cc(=O)c2c1 [UCSF924NC] | 1.116
Cc1ccc2nc(CNCCCOc3ccccc3)cc(O)c2c1 [UCSF924] | 1.046
CNC(=O)c1ccccc1Nc1cc(Nc2ccc(N3CCOCC3)cc2OC)ncc1C(F)(F)F [VS-4718] | 0.4552
O=C(NNS(=O)(=O)c1ccccc1)c1cc(-c2ccnnc2)ccc1F [WM-2474] | 1.138
Nc1nc(NCc2ccccc2)nc(-c2cccc(CO)c2)n1 [ZINC32547799] | 1.205
